Test results taken from US5164411A, “Pyrethroid compositions” (priority 1991, dated 1992).
In brackets after ≈: the same amount, converted by molar mass.

Tests used:
Heliothis sp. = experiment: Field trials on cotton, control of Heliothis sp.; assay type: in vivo, Heliothis virescens and Heliothis zea; conditions: for Yield: seed cotton per acre
Source text: Plots were a minimum of 0.2 acres, and all applications were by commercial ground equipment with a minimum of 10 gallons total spray solution per acre. The cypermethrin isomer content (weight %) of the several sigma-cypermethrin technical products used in the field trials were as follows:
Analysis of the data was based on a seasonal average of multiple evaluations taken over a four to six week period (3-4 applications) in trials for control of Heliothis sp.

[1] = test system: alfalfa weevil (Hypera postica); experiment: Field trials, control of alfalfa weevil; assay type: in vivo
Method: Field trials were conducted in Louisiana, North Carolina, Texas, Kentucky, Tennessee, and Illinois to evaluate the control of alfalfa weevil (Hypera postica). Small plot trials were used in a randomized block design with four replications per treatment. Applications were made with CO2 backpack sprayers. Results were obtained at 3, 7, and 14 days after treatment (DAT) and were converted to percent control based on the untreated check.

[2] = test system: tobacco budworm (Heliothis virescens); experiment: Foliar evaluation, tobacco budworm (TBW); assay type: in vivo; conditions: for LC50: Heliothis virescens, foliar, pinto beans, mortality at 48 hours
Method: (§1) Cypermethrin and sigma-cypermethrin were tested by foliar application at various concentrations in aqueous solutions containing 9.75% acetone and 0.25% octylphenoxypolyethoxyethanol. Insect species utilized included the cabbage looper (Trichoplusia ni), southern armyworm (Spodoptera eridania), Mexican bean beetle (Epilachna varivestis), tobacco budworm (Heliothis virescens), and corn earworm (Heliothis zea).
(§2) For all insects, pinto beans (Phaseolus vulgaris) plants were treated with the test solutions. The test solutions were applied with a sprayer to the upper and lower surfaces of the plant leaves to runoff. The plants were then allowed to dry and were severed at the base of the stem before being placed in cups. Ten second instar individuals of the appropriate insect species, except the tobacco budworm and corn earworm, were placed in each cup and the cup covered. Tests with the tobacco budworm and corn earworm used four replicates with each replicate containing five second instar insects. In all tests, mortality was read 48 hours later. The sigma-cypermethrin used in the foliar evaluations was the product of Example 2.

[3] = test system: southern armyworm (Spodoptera eridania); experiment: Foliar evaluation, southern armyworm (SAW); assay type: in vivo; conditions: for LC50: Spodoptera eridania, foliar, pinto beans, mortality at 48 hours
Method: as §1, §2

cabbage looper = experiment: Field trials on lettuce, control of cabbage looper; assay type: in vivo, Trichoplusia ni
Source text: Field trials conducted on lettuce in California for evaluation of the control of cabbage looper consisted of a randomized complete block design of four replications per treatment. Applications were made to small plots with CO2 backpack sprayer using a minimum of 10 gallons per acre. Results were converted to percent control based on untreated check plots.

[4] = test system: female Sprague-Dawley rats; experiment: Teratology; assay type: in vivo, Sprague-Dawley rat; conditions: for embryotoxic or teratogenic effect: at any dose
Method: (§3) These tests were conducted in compliance with EPA guideline 83-3 for the purpose of determining the effects of the test materials on pregnancy and in utero development. The test materials were administered via gavage in corn oil once daily to female Sprague-Dawley rats on days 6 through 15 of presumed gestation. There were 25 animals per dose group. Dosages of 0, 17.5, 37.5, and 75 mg/kg for cypermethrin and 0, 5, 12.5, 25, and 35 mg/kg for sigma-cypermethrin were administered. The cypermethrin isomer content (weight %) of the sigma-cypermethrin technical product used in this study was total isomers--89.1%, S-isomers--82%, cis/trans ratio--51/49. The control animals (0 mg/kg) received corn oil during the treatment period. All dosages were adjusted daily on the basis of body weights.
(§4) Daily observations of the rats were made during the dosage and postdosage periods. On gestation day 20 to 21 the rats were sacrificed for examination of their uterine contents, including the number of live and dead fetuses and the number of resorptions. Fetuses were subsequently examined for malformations.

Teratology = assay type: in vivo, Sprague-Dawley rat; conditions: rat, po; gavage in corn oil, once daily, gestation days 6 through 15; read-out: NOEL
Method: as §3, §4

[5] = test system: tobacco budworm strain resistant to pyrethroids; experiment: Foliar evaluation, pyrethroid-resistant tobacco budworm (TBW-R); assay type: in vivo, Heliothis virescens; conditions: for LC50: Heliothis virescens, foliar, pinto beans, mortality at 48 hours
Method: as §1, §2

[6] = Ninety-six-hour flow-through acute toxicity, sheepshead minnow; assay type: in vivo, Cyprinodon variagatus; conditions: 96 h flow-through, filtered seawater
Method: (§5) Ninety-six-hour flow-through acute toxicity studies of both cypermethrin and sigma-cypermethrin were conducted in the rainbow trout (Oncorhynchus mykiss) and in the sheepshead minnow (Cyprinodon variagatus) to determine the median-lethal-concentration (LC50) resulting from continuous exposure. For the rainbow trout the exposure medium was well water; for the sheepshead minnow, filtered seawater. Each group of 20 fish (10 per replicate aquarium) was exposed either to one of five concentrations of pyrethroid delivered in a diluter system in dimethylformamide (DMF), to 30 μL/L DMF in the exposure medium (solvent control), or to the exposure medium alone (control). Observations for mortality, morbidity, and other overt signs of toxicity were determined at prescribed intervals. Concentrations of the test materials were measured at the beginning and end of the exposure using a validated HPLC method. The cypermethrin isomer content (weight %) of the sigma-cypermethrin technical product used in this study was total isomers--88.2%, S-isomers--82%, cis/trans ratio--53/47.

[7] = test system: corn earworm (Heliothis zea); experiment: Foliar evaluation, corn earworm (CEW); assay type: in vivo; conditions: for LC50: Helicoverpa zea, foliar, pinto beans, mortality at 48 hours
Method: as §1, §2

[8] = test system: Mexican bean beetle (Epilachna varivestis); experiment: Foliar evaluation, Mexican bean beetle (MBB); assay type: in vivo; conditions: for LC50: Epilachna varivestis, foliar, pinto beans, mortality at 48 hours
Method: as §1, §2

[9] = Ninety-six-hour flow-through acute toxicity, rainbow trout; assay type: in vivo, Oncorhynchus mykiss; conditions: 96 h flow-through, well water
Method: as §5

[10] = Year 1, 0.022 lb ai/A, seasonal mean of 3 trials (MS, LA)
[11] = Year 1, 0.03 lb ai/A, seasonal mean of 3 trials (MS, LA)
[12] = Year 2, 0.026 lb ai/A, seasonal mean of 4 trials (MS, LA)
[13] = Year 3, 0.013 lb ai/A, seasonal mean of 6-8 trials (MS, LA, AL, GA)
[14] = Year 3, 0.026 lb ai/A, seasonal mean of 6-8 trials (MS, LA, AL, GA)
[15] = Year 3, 0.039 lb ai/A, seasonal mean of 6-8 trials (MS, LA, AL, GA)
[16] = Year 1, 0.06 lb ai/A, seasonal mean of 3 trials (MS, LA)
[17] = Year 2, 0.06 lb ai/A, seasonal mean of 4 trials (MS, LA)
[18] = Year 3, 0.06 lb ai/A, seasonal mean of 6-8 trials (MS, LA, AL, GA)

Compound: CC1(C)C(C=C(Cl)Cl)C1C(=O)O[C@H](C#N)c1cccc(Oc2ccccc2)c1 (mixture of isomers) [sigma-cypermethrin, (S)(cyano)(3-phenoxyphenyl)methyl cis/trans-3-(2,2-dichloroethenyl)-2,2-dimethylcyclopropanecarboxylate]
- % Hel. Live Larv. (Heliothis sp.; [10]): 10%
- % Hel. Sq. Dam. (Heliothis sp.; [10]): 9%
- Yield (Heliothis sp.; Year 1, 0.022 lb ai/A, 3 trials (MS, LA)): 2828 lb SC/A
- % Hel. Live Larv. (Heliothis sp.; [11]): 8%
- % Hel. Sq. Dam. (Heliothis sp.; [11]): 9%
- Yield (Heliothis sp.; Year 1, 0.03 lb ai/A, 3 trials (MS, LA)): 2795 lb SC/A
- % Hel. Live Larv. (Heliothis sp.; [12]): 3%
- % Hel. Sq. Dam. (Heliothis sp.; [12]): 3%
- % Hel. Live Larv. (Heliothis sp.; [13]): 6%
- % Hel. Sq. Dam. (Heliothis sp.; [13]): 3%
- Yield (Heliothis sp.; Year 3, 0.013 lb ai/A, 6-8 trials): 2818 lb SC/A
- % Hel. Live Larv. (Heliothis sp.; [14]): 5%
- % Hel. Sq. Dam. (Heliothis sp.; [14]): 4%
- Yield (Heliothis sp.; Year 3, 0.026 lb ai/A, 6-8 trials): 2778 lb SC/A
- % Hel. Live Larv. (Heliothis sp.; [15]): 5%
- % Hel. Sq. Dam. (Heliothis sp.; [15]): 3%
- Yield (Heliothis sp.; Year 3, 0.039 lb ai/A, 6-8 trials): 2692 lb SC/A
- % Alfalfa Weevil Control ([1]; Year 1, 0.022 lb ai/A, 3 DAT, average of 4 trials): 96%
- % Alfalfa Weevil Control ([1]; Year 1, 0.022 lb ai/A, 7 DAT, average of 4 trials): 94%
- % Alfalfa Weevil Control ([1]; Year 1, 0.022 lb ai/A, 14 DAT, average of 4 trials): 96%
- % Alfalfa Weevil Control ([1]; Year 2, 0.01 lb ai/A, 3 DAT, average of 6 trials): 93%
- % Alfalfa Weevil Control ([1]; Year 2, 0.01 lb ai/A, 7 DAT, average of 6 trials): 93%
- % Alfalfa Weevil Control ([1]; Year 2, 0.01 lb ai/A, 14 DAT, average of 6 trials): 85%
- % Alfalfa Weevil Control ([1]; Year 2, 0.015 lb ai/A, 3 DAT, average of 6 trials): 94%
- % Alfalfa Weevil Control ([1]; Year 2, 0.015 lb ai/A, 7 DAT, average of 6 trials): 97%
- % Alfalfa Weevil Control ([1]; Year 2, 0.015 lb ai/A, 14 DAT, average of 6 trials): 94%
- % Alfalfa Weevil Control ([1]; Year 2, 0.022 lb ai/A, 3 DAT, average of 6 trials): 94%
- % Alfalfa Weevil Control ([1]; Year 2, 0.022 lb ai/A, 7 DAT, average of 6 trials): 96%
- % Alfalfa Weevil Control ([1]; Year 2, 0.022 lb ai/A, 14 DAT, average of 6 trials): 94%
- LC50 [2]: 4.4 µg/mL
- Relative Potency ([2]; vs cypermethrin, TBW): 1.7
- LC50 [3]: 1.8 µg/mL
- Relative Potency ([3]; vs cypermethrin, SAW): 2.3
- % Cabbage Looper Control (cabbage looper; Year 1, 0.026 lb ai/A, 3 DAT, average of 2 trials (CA)): 83%
- % Cabbage Looper Control (cabbage looper; Year 1, 0.026 lb ai/A, 7 DAT, average of 2 trials (CA)): 90%
- % Cabbage Looper Control (cabbage looper; Year 2, 0.013 lb ai/A, 3 DAT, 1 trial (CA)): 98%
- % Cabbage Looper Control (cabbage looper; Year 2, 0.013 lb ai/A, 7 DAT, 1 trial (CA)): 71%
- % Cabbage Looper Control (cabbage looper; Year 2, 0.026 lb ai/A, 3 DAT, 1 trial (CA)): 98%
- % Cabbage Looper Control (cabbage looper; Year 2, 0.026 lb ai/A, 7 DAT, 1 trial (CA)): 91%
- % Cabbage Looper Control (cabbage looper; Year 2, 0.039 lb ai/A, 3 DAT, 1 trial (CA)): 100%
- % Cabbage Looper Control (cabbage looper; Year 2, 0.039 lb ai/A, 7 DAT, 1 trial (CA)): 98%
- embryotoxic or teratogenic effect [4]: no embryotoxic or teratogenic effect
- amount required to show an effect on rats relative to that expected from effect on insects ([4]; teratology): 1.4 times
- NOAEL (Teratology): 12.5 mg/kg
- LC50 [5]: 43 µg/mL
- Relative Potency ([5]; vs cypermethrin, TBW-R): 2.1
- LC50 at 96 h [6]: 0.00237 µg/mL
- LC50 [7]: 3.9 µg/mL
- Relative Potency ([7]; vs cypermethrin, CEW): 1.9
- LC50 [8]: 0.3 µg/mL
- effectiveness relative to cypermethrin ([8]; the only Coleoptera tested, laboratory): four times as effective
- Relative Potency ([8]; vs cypermethrin, MBB): 4.0
- LC50 at 96 h [9]: 0.00069 µg/mL

Compound: CC1(C)C(C=C(Cl)Cl)C1C(=O)OC(C#N)c1cccc(Oc2ccccc2)c1 (centres unmarked) [cypermethrin, (cyano)(3-phenoxyphenyl)methyl 3-(2,2-dichloroethenyl)-2,2-dimethylcyclopropanecarboxylate, reference compound]
- % Hel. Live Larv. (Heliothis sp.; [16]): 9%
- % Hel. Sq. Dam. (Heliothis sp.; [16]): 9%
- Yield (Heliothis sp.; Year 1, 0.06 lb ai/A, 3 trials (MS, LA)): 2641 lb SC/A
- % Hel. Live Larv. (Heliothis sp.; [17]): 2%
- % Hel. Sq. Dam. (Heliothis sp.; [17]): 3%
- % Hel. Live Larv. (Heliothis sp.; [18]): 4%
- % Hel. Sq. Dam. (Heliothis sp.; [18]): 3%
- Yield (Heliothis sp.; Year 3, 0.06 lb ai/A, 6-8 trials): 2675 lb SC/A
- % Alfalfa Weevil Control ([1]; Year 2, 0.04 lb ai/A, 3 DAT, average of 6 trials): 94%
- % Alfalfa Weevil Control ([1]; Year 2, 0.04 lb ai/A, 7 DAT, average of 6 trials): 96%
- % Alfalfa Weevil Control ([1]; Year 2, 0.04 lb ai/A, 14 DAT, average of 6 trials): 90%
- LC50 [2]: 7.3 µg/mL (≈ 17.5 µM)
- LC50 [3]: 4.2 µg/mL (≈ 10.1 µM)
- % Cabbage Looper Control (cabbage looper; Year 1, 0.06 lb ai/A, 3 DAT, average of 2 trials (CA)): 61%
- % Cabbage Looper Control (cabbage looper; Year 1, 0.06 lb ai/A, 7 DAT, average of 2 trials (CA)): 78%
- % Cabbage Looper Control (cabbage looper; Year 2, 0.06 lb ai/A, 3 DAT, 1 trial (CA)): 94%
- % Cabbage Looper Control (cabbage looper; Year 2, 0.06 lb ai/A, 7 DAT, 1 trial (CA)): 81%
- embryotoxic or teratogenic effect [4]: no embryotoxic or teratogenic effect
- NOAEL (Teratology): 17.5 mg/kg
- LC50 [5]: 92 µg/mL (≈ 221 µM)
- LC50 at 96 h [6]: 0.00388 µg/mL (≈ 0.00932 µM)
- LC50 [7]: 7.3 µg/mL (≈ 17.5 µM)
- LC50 [8]: 1.2 µg/mL (≈ 2.88 µM)
- LC50 at 96 h [9]: 0.000897 µg/mL (≈ 0.00215 µM)
